Results: patent US10072161B2, “Polyamide nanoparticles and uses thereof” (Bar-Ilan University, priority 2014, dated 2018)

Experiments:
[1] = ESR spin trapping (DMPO) of ROS; settings: 10 mM antioxidant
Protocol: ROS production was detected using the ESR spin trapping technique coupled with a spin trap 5,5-Dimethyl-pyrroline N-oxide (DMPO, Sigma, St. Louis, Mo.). Typically, the aqueous suspensions of NPs were added to DMPO (0.01 M), in the presence of equivalent volumes of either twofold concentrated LB medium, or each of its components (Tryptone, yeast extract, NaCl) or water. […] The solution was drawn into a 0.8 mm ID capillary quartz tube sealed at both ends with a plastic Critoseal (Thermo Fisher Scientific Inc), which was placed into a quartz tube that in turn was placed into the EPR rectangular cavity (ER 4122SHQ). The measurements were taken using a X-band Elexsys E500 EPR spectrometer (Bruker, Karlsruhe, Germany) using the following parameters: microwave power, 20 mW; scan width, 100 G; resolution, 1024; Gain, 60; sweep time, 60 s; # scans, 2; modulation frequency, 100 kHz; modulation amplitude, 1 G. In order to compare the radical intensity, the double integration (DI) of the spin adduct signal was calculated, using the Xepr 2.6b.58 acquisition version.

[2] = system: E. coli; assay: Bacterial killing kinetics in the presence of antioxidants; assay type: cell-based, Escherichia coli; settings: 10 mM antioxidant, 1 h pre-incubation
Protocol: (§1) Cultures of E. coli and S. aureus bacteria grown overnight were diluted in fresh twofold concentrated LB medium to obtain stock solutions with a final working concentration of 10^5 CFU/ml. […] Bacteria supplemented with distilled water or the various antioxidants served as negative controls. At various time points, 100 μl samples were taken from each tube and transferred into the first row wells of a 96-well plate containing 20 μl of 0.1 N thiosulfate. The latter was added to quench the remaining chlorine on the P(MAA-MBAA)-Cl NPs and NaOCl, thus terminating the sterilization process. Serial dilutions were carried out and the cells spotted onto LB agar plates, which were incubated at 37° C. for 20 h. Cell growth was monitored and determined by a viable cell count.

[3] = system: S. aureus; assay: as above; assay type: cell-based, Staphylococcus aureus; settings: 10 mM antioxidant, 1 h pre-incubation
Protocol: as §1

[4] = system: Escherichia coli (E. coli) C600; assay: Minimum inhibitory concentration (MIC) assay in LB, 96-well, OD595; assay type: cell-based; settings: 10^5 CFU/mL
Protocol: (§2) In exemplary procedures, Escherichia coli (E. coli) C600, Staphylococcus aureus (S. aureus) FRF1169, and multi-drug resistant strains E. coli 5327752, Klebsiella pneumoniae 5363271, and Providencia stuartii 5327311 were grown overnight at 37° C. under agitation (250 rpm) in Luria Bertani (LB, Difco) growth medium.
(§3) In exemplary procedures, the antimicrobial activity of the P(MAA-MBAA)-Cl nanoparticles was evaluated by determining the minimum inhibitory concentration (MIC) values for both E. coli and S. aureus. The MIC was defined as the lowest Cl concentration bound to the nanoparticles, or the NaOCl, at which no bacterial growth was visible following incubation with the respective bacteria. The stock solution of the P(MAA-MBAA)-Cl nanoparticles and NaOCl were each diluted in two-fold serial dilutions in a 96-well plate (Griener Bio-one) ranging from bound Cl concentrations of 10 to 0.08 mM (approximately corresponding to 0.8% P(MAA-MBAA)-Cl, w/v) in LB medium in a 96-well plate (Greiner Bio-one). Each well contained 10^5 colony-forming units (CFU)/mL of either E. coli or S. aureus, and bacteria were either treated with P(MAA-MBAA) nanoparticles or left untreated to serve as negative controls. The bacterial growth was monitored via absorbance measurements at OD595 utilizing a microplate reader (Synergy 2, BioTek instruments). All experiments were conducted in triplicate.

[5] = system: Staphylococcus aureus (S. aureus) FRF1169; assay: as above; assay type: cell-based; settings: 10^5 CFU/mL
Protocol: as §2, §3

[6] = system: E. coli; assay: Bacterial killing / killing kinetics, viable cell count (CFU/mL); assay type: cell-based, Escherichia coli
Protocol: as §2
(§4) In exemplary procedures, overnight cultures of E. coli and S. aureus bacteria were each diluted in a fresh LB medium to obtain stock solutions with a working concentration of 10^5 CFU per mL. Next, E. coli and S. aureus bacteria were grown, […] with equivalent volumes of either NaOCl, P(MAA-MBAA) or P(MAA-MBAA)-Cl nanoparticles (0.2%, 0.75%, and 1% w/v) under continuous agitation (250 rpm). At various time points, 100 μL samples were taken from each tube and transferred into the wells of the first row in a 96-well plate that contained 20 μL of 0.1 N sodium thiosulfate. The latter was added to quench the remaining Cl on the P(MAA-MBAA)-Cl nanoparticles, thus halting the reaction. Serial dilutions were carried out, and the cells were spotted onto LB agar plates, followed by incubation at 37° C. for 20 hours. Cell growth was monitored and determined by viable cell count and expressed as CFU/mL.
(§5) Cultures of E. coli and S. aureus bacteria grown overnight were diluted in fresh twofold concentrated LB medium to obtain stock solutions with a final working concentration of 10^5 CFU/ml. Then, E. coli and S. aureus bacteria were grown with either P(MAA-MBAA)-Cl NPs or NaOCl under continuous agitation (250 rpm). Bacteria grown with distilled water or P(MAA-MBAA) NPs served as negative controls. At various time points, 100 μl samples were taken from each tube and transferred into the first row wells of a 96-well plate containing 20 μl of 0.1 N thiosulfate. The latter was added to quench the remaining chlorine on the P(MAA-MBAA)-Cl NPs and NaOCl, thus terminating the sterilization process. […] Cell growth was monitored and determined by a viable cell count.

[7] = system: S. aureus; assay: as above; assay type: cell-based, Staphylococcus aureus
Protocol: as §2, §4, §5

[8] = system: E. coli; assay: Consecutive bacterial loading cycles (hourly, 8 cycles); assay type: cell-based, Escherichia coli
Protocol: (§6) The cell density of E. coli and S. aureus grown overnight was normalized to 2*10^5 cells per milliliter in a twofold concentrated LB medium; then the bacteria were treated for 1 h at 37° C. under agitation (250 rpm) with equivalent volumes of either NaOCl or P(MAA-MBAA)-Cl NPs. Bacteria shaken with water served as a negative control. After 1 h of incubation, aliquots were collected and diluted serially tenfold before spotting onto LB agar plates. After an overnight incubation at 37° C. the colony forming units (CFU) were counted and used to determine cell survival. Immediately after each aliquot was removed, newly prepared bacteria were added for another hour to each of the tubes to achieve a final concentration of 10^5 CFU/ml.

[9] = system: S. aureus; assay: as above; assay type: cell-based, Staphylococcus aureus
Protocol: as §6

[10] = system: E. coli; assay: Stability in organic rich media (LB pre-incubation, then bacterial loading); assay type: cell-based, Escherichia coli
Protocol: (§7) 1 ml of either DDW, NaOCl or P(MAA-MBAA)-Cl NPs was mixed with 1 ml of twofold concentrated LB medium and incubated for 3 h, 5 h or 24 h. Then, E. coli or S. aureus were added to each of the solutions, reaching a final concentration of 10^5 CFU/ml and the mixture agitated for either 3 h or 24 h. At the indicated time points, samples were taken for cell viability determination and the solutions were reloaded with freshly prepared bacteria. The experiment was continued until the reagents were no longer capable of evincing toxic effects on the tested bacteria.

[11] = system: S. aureus; assay: as above; assay type: cell-based, Staphylococcus aureus
Protocol: as §7

[12] = Kinetics of oxidative chlorine release in LB medium (NaI quenching, 292/350 nm); assay type: physicochemical; settings: for % chlorinated: 1 day in LB
Protocol: (§8) Equal volumes of NaOCl or P(MAA-MBAA)-Cl NPs were incubated with equivalent volumes of twofold concentrated LB medium. The precise concentration of the oxidative chlorine found on the two reagents was determined at different time intervals via quenching with sodium iodide followed by spectrophotometer (Amersham Bioschiences) measurements at wavelengths of 292 nm and 350 nm, as previously described.
as §8, with “nm.” for “nm, as previously described.”

[13] = 10^5 CFU/ml in LB, NPs versus NaOCl
[14] = pre-incubated for 1 week with LB

Structure (SMILES): CC(=O)N[C@@H](CS)C(=O)O [NAC, N-acetyl cysteine]
- effect on formation of DMPO-OH by P(MAA-MBAA)-Cl NPs with LB [1]: completely abrogated
- effect of antioxidant pre-incubation on killing by the chlorinated NPs [2]: abolished the killing properties of the NPs
- effect of antioxidant pre-incubation on killing by the chlorinated NPs [3]: abolished the killing properties of the NPs

Structure (SMILES): OCl [NaOCl, sodium hypochlorite]
- minimum inhibitory concentration (MIC) [4]: 5.6 mM oxidative Cl
- minimum inhibitory concentration (MIC) [5]: 5.6 mM oxidative Cl
- bacterial killing ([6]; 8 mM oxidative chlorine): Total kill
- bacterial killing ([6]; 11 mM oxidative chlorine): Total kill
- time to eradication of bacteria [6, 13]: ≤ 2 min
- bacterial killing ([7]; 8 mM oxidative chlorine): Total kill
- bacterial killing ([7]; 11 mM oxidative chlorine): Total kill
- time to eradication of bacteria [7, 13]: ≤ 2 min
- bacterial viability after overnight incubation following the eighth loading cycle [8]: no viable E. coli bacteria
- loading cycle from which no longer able to promote bacterial killing [8]: 4 cycle
- bacterial viability after overnight incubation following the eighth loading cycle [9]: able to overcome the growth inhibitory affect
- loading cycle from which no longer able to promote bacterial killing [9]: 2 cycle
- effect of pre-incubation with LB on bactericidal activity ([10]; 3 h pre-incubation): had no impact on their bactericidal activity
- effect of pre-incubation with LB on bactericidal activity ([10]; 5 h pre-incubation): growth inhibition
- time to complete killing ([10]; 5 h pre-incubation with LB): 24 h
- reduction of bacteria viability ([10]; 5 h pre-incubation with LB, 3 h time point): ~4 logs
- effect of pre-incubation with LB on bactericidal activity ([10]; 24 h pre-incubation): destroyed its antibacterial activity
- concentration required to kill bacteria [10, 14]: 0.36 M
- killing at 0.18 M [10, 14]: ineffective
- effect of pre-incubation with LB on bactericidal activity ([11]; 3 h pre-incubation): did compromise its bactericidal activity
- time to complete killing ([11]; 3 h pre-incubation with LB): 24 h
- effect of pre-incubation with LB on bactericidal activity ([11]; 5 h pre-incubation): growth arrest
- effect of pre-incubation with LB on bactericidal activity ([11]; 24 h pre-incubation): destroyed its antibacterial activity
- concentration required to kill bacteria [11, 14]: 0.36 M
- killing at 0.18 M [11, 14]: ineffective
- NaOCl molecules sequestered by organic substances ([12]; 10 minutes of incubation in LB): ~50%
- % chlorinated ([12]; measured at 292 nm): 0.9%
- % chlorinated ([12]; measured at 350 nm): 0.5%

Structure (SMILES): O=C1O[C@H]([C@@H](O)CO)C(O)=C1O [AA, Ascorbic acid]
- effect of antioxidant pre-incubation on killing by the chlorinated NPs [2]: abolished the killing properties of the NPs
- effect of antioxidant pre-incubation on killing by the chlorinated NPs [3]: abolished the killing properties of the NPs
